# Laboratory results taken from ChEMBL document CHEMBL5055685, “Discovery of the First Potent IDO1/IDO2 Dual Inhibitors: A Promising Strategy for Cancer Immunotherapy” (J Med Chem, 2021).
# Calls of active or inactive are those of the source. The rule behind the calls is not given here.
# Experiments:
# [1] = target: T1, Indoleamine 2,3-dioxygenase 2 (Homo sapiens) (UniProt Q6ZQW0); test: Inhibition of IDO2 (unknown origin) assessed as reduction in kynurenine formation using L-tryptophan as substrate by methylene blue reagent based assay relative to control; parameters: concentration or dose not given beside the values; conditions: concentration not given here
# T1 sequence (whole entry): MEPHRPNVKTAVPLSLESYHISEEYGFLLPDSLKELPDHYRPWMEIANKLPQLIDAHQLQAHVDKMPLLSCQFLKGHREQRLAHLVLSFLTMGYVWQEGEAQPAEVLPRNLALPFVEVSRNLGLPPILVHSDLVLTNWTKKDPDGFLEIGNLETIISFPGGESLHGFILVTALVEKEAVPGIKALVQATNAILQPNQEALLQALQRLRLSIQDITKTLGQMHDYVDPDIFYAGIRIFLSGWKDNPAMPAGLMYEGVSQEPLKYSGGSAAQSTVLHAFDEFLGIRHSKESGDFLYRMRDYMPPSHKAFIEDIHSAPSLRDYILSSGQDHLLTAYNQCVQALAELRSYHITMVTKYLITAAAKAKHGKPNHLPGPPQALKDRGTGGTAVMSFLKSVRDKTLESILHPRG
# [2] = target: T2, Indoleamine 2,3-dioxygenase 1 (Homo sapiens, UniProt P14902); test: Inhibition of IDO1 (unknown origin) assessed as reduction in kynurenine formation using L-tryptophan as substrate by methylene blue reagent based assay relative to control; parameters: concentration or dose not given beside the values; conditions: concentration not given here
# Target sequence in this assay (P14902 whole entry, looked up): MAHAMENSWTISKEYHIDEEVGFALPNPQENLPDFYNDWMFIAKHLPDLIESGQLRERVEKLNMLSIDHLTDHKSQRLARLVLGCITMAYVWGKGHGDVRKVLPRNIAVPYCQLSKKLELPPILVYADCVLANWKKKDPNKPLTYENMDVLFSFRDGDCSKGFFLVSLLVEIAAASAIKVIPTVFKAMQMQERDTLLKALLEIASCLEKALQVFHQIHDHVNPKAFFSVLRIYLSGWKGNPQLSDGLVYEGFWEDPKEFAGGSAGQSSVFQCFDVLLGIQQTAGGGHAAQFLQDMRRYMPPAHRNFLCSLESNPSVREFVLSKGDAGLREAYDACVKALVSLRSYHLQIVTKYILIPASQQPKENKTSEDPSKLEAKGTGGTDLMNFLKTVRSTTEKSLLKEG
# [3] = target: T3, Indoleamine 2,3-dioxygenase 2 (Homo sapiens, UniProt Q6ZQW0); test: Inhibition of IDO2 (unknown origin) assessed as reduction in kynurenine formation using L-tryptophan as substrate by methylene blue reagent based assay
# T3 sequence (Q6ZQW0 whole entry): T1 sequence (whole entry)
# [4] = target: T2, Indoleamine 2,3-dioxygenase 1; test: Inhibition of IDO1 (unknown origin) assessed as reduction in kynurenine formation using L-tryptophan as substrate by methylene blue reagent based assay
# Target sequence in this assay (P14902 whole entry): as the sequence (P14902 whole entry, looked up) above
# [5] = target: T2, Indoleamine 2,3-dioxygenase 1; test: Inhibition of IDO1 in IFNgamma-stimulated human HeLa cells assessed as reduction in kynurenine formation measured after 48 hrs by spectrophotometry
# Target sequence in this assay (P14902 whole entry): as the sequence (P14902 whole entry, looked up) above
# [6] = Metabolic stability in dog liver microsomes assessed as rate constant; assay type: ADME, Canis lupus familiaris, Microsome
# [7] = Protein binding in Beagle dog plasma assessed as fraction unbound by equilibrium dialysis; assay type: ADME, cell-free, Canis lupus familiaris
# [8] = Protein binding in monkey plasma by equilibrium dialysis by equilibrium dialysis; assay type: ADME, cell-free, Macaca mulatta; conditions: rhesus monkey, read-out: PPB (converted)
# [9] = Protein binding in ICR mouse plasma by equilibrium dialysis; assay type: ADME, cell-free; conditions: read-out: PPB (converted)
# [10] = Tmax in Sprague-Dawley rat at 50 mg/kg, po; assay type: ADME, organism-based; conditions: in vivo
# [11] = Metabolic stability in rat liver microsomes assessed as rate constant; assay type: ADME, Microsome
# [12] = AUC (0 to infinity) in Sprague-Dawley rat at 5 mg/kg, iv; assay type: ADME, organism-based; parameters: time infinity, dose 5 mg/kg, route iv; conditions: in vivo
# [13] = test system: Rattus norvegicus; test: Toxicity in rat assessed as rat death at […]; assay type: organism-based; conditions: in vivo
# [14] = AUC (0 to t) in Sprague-Dawley rat at 5 mg/kg, iv; assay type: ADME, organism-based; parameters: dose 5 mg/kg, route iv; conditions: in vivo
# [15] = Half life in dog liver microsomes assessed as rate constant; assay type: ADME, Canis lupus familiaris, Microsome
# [16] = Half life in monkey liver microsomes; assay type: ADME, Macaca mulatta, Microsome; conditions: rhesus monkey
# [17] = AUC (0 to t) in Sprague-Dawley rat at 50 mg/kg, po; assay type: ADME, organism-based; parameters: dose 50 mg/kg, route po; conditions: in vivo
# [18] = test system: Rattus norvegicus; test: Toxicity in rat assessed as weight loss at […]; assay type: organism-based; conditions: in vivo
# [19] = Half life in mouse liver microsomes; assay type: ADME, Microsome
# [20] = Protein binding in Sprague-Dawley rat plasma assessed as fraction unbound by equilibrium dialysis; assay type: ADME, cell-free
# [21] = test system: HeLa; test: Cytotoxicity against human HeLa cells assessed as reduction in cell viability at 1 to 10 uM by CCK8 assay; assay type: functional, cell-based; conditions: dose 1-10 µM
# [22] = AUC (0 to infinity) in Sprague-Dawley rat at 50 mg/kg, po; assay type: ADME, organism-based; parameters: time infinity, dose 50 mg/kg, route po; conditions: in vivo
# [23] = Efflux ratio of apparent permeability across basolateral to apical over apical to basolateral side in human Caco-2 cells; assay type: ADME, cell-based
# [24] = test system: PBMC; test: Inhibition of IDO1/IDO2 in IFNgamma/LPS-stimulated human PBMCs assessed as reduction in kynurenine formation at 0.0001 to 10 uM pretreated with compound for 15 mins followed by IFNgamma/LPS stimulation by LC-MS/MS analysis; assay type: tissue-based; conditions: dose 0.0001-10 µM
# [25] = Metabolic stability in human liver microsomes assessed as rate constant; assay type: ADME, Microsome
# [26] = Protein binding in Beagle dog plasma by equilibrium dialysis; assay type: ADME, cell-free, Canis lupus familiaris; conditions: read-out: PPB (converted)
# [27] = Protein binding in ICR mouse plasma assessed as fraction unbound by equilibrium dialysis; assay type: ADME, cell-free
# [28] = test system: HT-29; test: Cytotoxicity against human HT-29 cells assessed as reduction in cell viability by CCK8 assay; assay type: functional, cell-based
# [29] = test system: Mus musculus; test: Toxicity in BALB/c mouse implanted with mouse CT26 cells assessed as adverse effect at 50 mg/kg, ip bid for 28 days; assay type: organism-based; conditions: in vivo, 672 h, time 28 day
# [30] = Protein binding in Sprague-Dawley rat plasma by equilibrium dialysis; assay type: ADME, cell-free; conditions: read-out: PPB (converted)
# [31] = Oral bioavailability in Sprague-Dawley rat at 50 mg/kg; assay type: ADME, organism-based; conditions: in vivo
# [32] = Half life in human liver microsomes; assay type: ADME, Microsome
# [33] = test system: HCT-116; test: Cytotoxicity against human HCT-116 cells assessed as reduction in cell viability by CCK8 assay; assay type: functional, cell-based
# [34] = Protein binding in monkey plasma assessed as fraction unbound by equilibrium dialysis; assay type: ADME, cell-free, Macaca mulatta; conditions: rhesus monkey
# [35] = test system: CT26; test: Antitumor activity against mouse CT26 cells implanted in BALB/c mouse assessed as tumor growth inhibition at 50 mg/kg, ip bid for 28 days by vernier caliper method relative to control; assay type: functional; conditions: CT26, 672 h, time 28 day, read-out: TGI
# [36] = Protein binding in human plasma by equilibrium dialysis; assay type: ADME, cell-free; conditions: read-out: PPB (converted)
# [37] = Toxicity in rat assessed as maximum tolerated dose; assay type: organism-based; conditions: in vivo
# [38] = Clearance in rat liver microsomes; assay type: ADME, Microsome; conditions: read-out: CLH
# [39] = Cmax in Sprague-Dawley rat at 50 mg/kg, po; assay type: ADME, organism-based; parameters: dose 50 mg/kg, route po; conditions: in vivo
# [40] = Clearance in dog liver microsomes; assay type: ADME, Canis lupus familiaris, Microsome; conditions: read-out: CLH
# [41] = Metabolic stability in mouse liver microsomes assessed as rate constant; assay type: ADME, Microsome
# [42] = Protein binding in human plasma assessed as fraction unbound by equilibrium dialysis; assay type: ADME, cell-free
# [43] = Volume of distribution at steady state in Sprague-Dawley rat at 5 mg/kg, iv; assay type: ADME, organism-based; conditions: in vivo, read-out: Vdss
# [44] = Apparent permeability across apical to basolateral side in human Caco-2 cells; assay type: ADME, cell-based
# [45] = test system: Mus musculus; test: Toxicity in BALB/c mouse implanted with mouse CT26 cells assessed as weight loss at 50 mg/kg, ip bid for 28 days; assay type: organism-based; conditions: in vivo, 672 h, time 28 day
# [46] = Clearance in mouse liver microsomes; assay type: ADME, Microsome; conditions: read-out: CLH
# [47] = Half life in rat liver microsomes; assay type: ADME, Microsome
# [48] = Apparent permeability across apical to basolateral side in human Caco-2 cells assessed as drug recovery; assay type: ADME, cell-based; conditions: read-out: Drug recovery
# [49] = Apparent permeability across basolateral to apical side in human Caco-2 cells; assay type: ADME, cell-based
# [50] = Intrinsic clearance in human liver microsomes; assay type: ADME, Microsome; conditions: read-out: CLH
# [51] = Metabolic stability in monkey liver microsomes assessed as rate constant; assay type: ADME, Macaca mulatta, Microsome; conditions: rhesus monkey
# [52] = Half life in Sprague-Dawley rat at 50 mg/kg, po; assay type: ADME, organism-based; conditions: in vivo
# [53] = Apparent permeability across basolateral to apical side in human Caco-2 cells assessed as drug recovery; assay type: ADME, cell-based; conditions: read-out: Drug recovery
# [54] = Intrinsic clearance in monkey liver microsomes; assay type: ADME, Macaca mulatta, Microsome; conditions: rhesus monkey, read-out: CLH
# [55] = target: Voltage-gated inwardly rectifying potassium channel KCNH2 (Homo sapiens, UniProt Q12809); test: Inhibition of human ERG
# [56] = Half life in Sprague-Dawley rat at 5 mg/kg, iv; assay type: ADME, organism-based; conditions: in vivo
# [57] = test system: CT26; test: Cytotoxicity against mouse CT26 cells assessed as reduction in cell viability by CCK8 assay; assay type: functional, cell-based
# Voltage-gated inwardly rectifying potassium channel KCNH2, sequence (Q12809 whole entry): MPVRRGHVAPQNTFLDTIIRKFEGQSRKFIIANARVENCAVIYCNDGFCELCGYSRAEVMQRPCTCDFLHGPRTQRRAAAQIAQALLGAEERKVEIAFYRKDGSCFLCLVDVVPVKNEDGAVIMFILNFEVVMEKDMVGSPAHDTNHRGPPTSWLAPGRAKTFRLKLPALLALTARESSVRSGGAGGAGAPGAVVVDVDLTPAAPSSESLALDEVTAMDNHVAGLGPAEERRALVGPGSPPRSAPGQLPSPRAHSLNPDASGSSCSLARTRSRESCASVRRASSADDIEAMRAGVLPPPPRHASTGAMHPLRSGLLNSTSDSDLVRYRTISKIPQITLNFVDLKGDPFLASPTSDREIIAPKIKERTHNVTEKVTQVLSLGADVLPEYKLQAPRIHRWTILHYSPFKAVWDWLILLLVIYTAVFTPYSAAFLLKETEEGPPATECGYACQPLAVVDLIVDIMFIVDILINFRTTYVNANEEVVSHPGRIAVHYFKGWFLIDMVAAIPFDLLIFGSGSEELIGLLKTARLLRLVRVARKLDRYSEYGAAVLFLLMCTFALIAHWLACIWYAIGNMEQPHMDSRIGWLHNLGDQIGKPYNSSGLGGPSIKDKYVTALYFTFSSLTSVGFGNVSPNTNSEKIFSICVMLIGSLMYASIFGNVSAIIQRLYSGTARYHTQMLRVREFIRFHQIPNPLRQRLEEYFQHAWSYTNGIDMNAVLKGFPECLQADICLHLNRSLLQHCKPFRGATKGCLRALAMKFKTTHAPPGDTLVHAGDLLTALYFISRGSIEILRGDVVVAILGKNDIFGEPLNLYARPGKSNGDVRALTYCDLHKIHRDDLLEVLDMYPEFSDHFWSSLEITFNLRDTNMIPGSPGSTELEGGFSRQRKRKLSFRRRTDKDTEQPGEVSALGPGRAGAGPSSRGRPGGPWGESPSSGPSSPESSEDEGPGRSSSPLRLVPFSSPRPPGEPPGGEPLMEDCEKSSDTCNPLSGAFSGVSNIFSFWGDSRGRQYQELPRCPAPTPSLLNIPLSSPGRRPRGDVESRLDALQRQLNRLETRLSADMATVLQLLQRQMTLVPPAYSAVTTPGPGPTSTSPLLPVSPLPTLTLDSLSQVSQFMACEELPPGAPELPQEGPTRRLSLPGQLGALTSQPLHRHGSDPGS
smiles,measurement,setting,value
COc1ccc(-c2cn(CCNc3nonc3/C(=N/O)Nc3ccc(F)c(Br)c3)nn2)cc1,inhibition,[1],15%
same,inhibition,[2],8%
CC(C)(OCCO)c1cn(CCNc2nonc2/C(=N/O)Nc2ccc(F)c(Br)c2)nn1,IC50,[3],1170 nM
same,IC50,[4],176 nM
CCOc1cc(CNC(=O)c2ncoc2-c2ccc(OC)cc2)cc(OCC)c1OCC,IC50,[5],6.3 nM
Nc1cccc(-c2cn(CCNc3nonc3/C(=N/O)Nc3ccc(F)c(Br)c3)nn2)c1,inhibition,[1],12%
same,inhibition,[2],7%
CCC(C)(O)c1cn(CCNc2nonc2/C(=N/O)Nc2ccc(F)c(Br)c2)nn1 (stereo not drawn),IC50,[3],958 nM
same,IC50,[4],53 nM
O/N=C(\Nc1ccc(F)c(Br)c1)c1nonc1NCCn1cc(C2CC2)nn1,inhibition,[1],10%
same,inhibition,[2],37%
OCCCc1cn(CCNc2nonc2/C(=N/O)Nc2ccc(F)c(Br)c2)nn1,IC50,[3],958 nM
same,IC50,[4],98 nM
CCC(O)c1cn(CCNc2nonc2/C(=N/O)Nc2ccc(F)c(Br)c2)nn1 (stereo not drawn),IC50,[3],947 nM
same,IC50,[4],73 nM
CC(C)(C)c1cn(CCNc2nonc2/C(=N/O)Nc2ccc(F)c(Br)c2)nn1,IC50,[3],1870 nM
same,IC50,[4],132 nM
O/N=C(\Nc1ccc(F)c(Br)c1)c1nonc1NCCn1cc(-c2ccccc2)nn1,inhibition,[1],4%
same,inhibition,[2],17%
CC(O)c1cn(CCNc2nonc2/C(=N/O)Nc2ccc(F)c(Br)c2)nn1 (stereo not drawn),k el,[6],0.00218 s⁻¹
same,fraction unbound,[7],0.0239
same,fraction unbound,[8],0.0371
same,fraction unbound,[9],0.0584
same,Tmax,[10],25.2 min
same,k el,[11],0.00218 s⁻¹
same,AUC,[12],5670 ng·h/mL
same,Activity,[13],Non-Toxic
same,AUC(0-t),[14],5590 ng·h/mL
same,half-life,[15],5.31 min
same,half-life,[16],68.8 min
same,AUC(0-t),[17],11300 ng·h/mL
same,Activity,[18],Non-Toxic
same,half-life,[19],41.2 min
same,fraction unbound,[20],0.044
same,Activity,[21],Active
same,AUC(0-inf),[22],11500 ng·h/mL
same,efflux ratio,[23],5.9
same,inhibition,[24],Active
same,k el,[25],4.35e-05 s⁻¹
same,fraction unbound,[26],0.0239
same,fraction unbound,[27],0.0584
same,IC50,[28],46000 nM
same,Activity,[29],Non-Toxic
same,IC50,[3],362 nM
same,fraction unbound,[30],0.04
same,bioavailability,[31],20.4%
same,half-life,[32],272 min
same,IC50,[33],23700 nM
same,fraction unbound,[34],0.0371
same,inhibition in vivo at 50 mg/kg,[35],66.3%
same,fraction unbound,[36],0.0192
same,MTD,[37],2 mg/kg
same,microsomal CLint,[38],64.2 µL/min/mg
same,Cmax,[39],2730 ng/mL
same,microsomal CLint,[40],261 µL/min/mg
same,K,[41],0.0168 min⁻¹
same,fraction unbound,[42],0.0192
same,Vd,[43],1.2 L/kg
same,Papp A→B,[44],13.8 ×10⁻⁶ cm/s
same,Activity,[45],Non-Toxic
same,microsomal CLint,[46],33.6 µL/min/mg
same,IC50,[4],53 nM
same,half-life,[47],21.6 min
same,recovery,[48],95.5%
same,Papp B→A,[49],80.9 ×10⁻⁶ cm/s
same,microsomal CLint,[50],5.22 µL/min/mg
same,k el,[51],0.000168 s⁻¹
same,half-life,[52],78 min
same,recovery,[53],116%
same,microsomal CLint,[54],20.2 µL/min/mg
same,IC50,[55],> 30000 nM
same,half-life,[56],48 min
same,IC50,[57],27500 nM
